{"source": "patent US12268727B2", "about": "“Bioactive polypeptides for improvements in plant protection, growth and productivity” (priority 2017, dated 2025)", "key": {"corn": {"tested_on": "corn", "type": "in vivo", "conditions": "8.0 Fl. oz/Ac"}, "soybean [1]": {"tested_on": "soybean", "test": "Foliar application to soybean, field yield trials", "type": "in vivo"}, "soybean [2]": {"tested_on": "soybean", "test": "Seed treatment of soybean, field yield trials", "type": "in vivo"}, "peppers (Capsicum)": {"tested_on": "peppers (Capsicum)", "test": "Foliar application to pepper, yield", "type": "in vivo, pepper (Capsicum)", "description": "Foliar treatments of Bt.4Q7 Flg22 and Ec.Flg22 bioactive priming polypeptides were applied using small scale plots designed to simulate commercial growing conditions for peppers (Capsicum). Two varieties of pepper: Red Knight (RK) and Hungarian Hot Wax (HHW) were grown from 6-week old transplants in raised beds covered with black plastic mulch that had good water-holding characteristics and a pH of 5.8-6.6. Plants were grown using drip irrigation and fertilizer applied following grower guidelines throughout the growing season to ensure optimum plant growth and yields. Small raised bed plots were designed to simulate the planting densities used by commercial growers that generally plant approximately 10,000-14,000 plants per acre in double rows 14-18 inches (35.6 to 46 cm) apart on plastic mulched beds with 16-24 inches (40.6 to 61 cm) between plants in the row and with the beds spaced 5.0-6.5 feet ([…]) apart from their centers. A single row of peppers also can be planted on each bed (5,000-6,500 plants per acre or 12,355-16,062 plants per hectare).\nEffects of the foliar applications on pepper yield were determined for two separate harvests using a once over harvest approach and normalized to the yield of the control plants. The average percentage change in yield for each treatment over the yield for the control plants is reported as pounds/acre (lbs/Ac) in Table 29.\nFoliar treatment of Gm.RHPP (SEQ ID NO: 600) was applied as an exogenous spray at the first-bloom stage to increase yield in two pepper varieties. Foliar treatment of Gm.RHPP was applied using small scale plots designed to simulate commercial growing conditions for peppers (Capsicum) as described in Example 13. Foliar applications with the Gm.RHPP bioactive priming polypeptide were applied at the first flower stage, on two varieties of pepper, Red Knight (RK) and Hungarian Hot Wax (HHW). […] Effects of the foliar applications on pepper yield were determined for two separate harvests using a once over harvest approach and normalized to the yield of the control plants. The average percentage change in yield over the yield for the control plants is reported in Table 42, as the percent change per total weight (lbs/Ac) of peppers harvested. Average percent change in yield is reported for the 2 replicate harvests (trials) for the RK and HHW pepper varieties and then as a combined average for both varieties.\nSmall-scale plots were designed to simulate commercial growing conditions for jalapeno peppers. Peppers were grown for 12-weeks in a controlled growth room and then transplanted outside in 2 raised beds covered with black plastic mulch that had good water-holding characteristics and in soil having a pH of 5.8-6.6. Jalapeno pepper plants were spaced 14-16 inches (38 cm) apart with 16-24 inches (50 cm) between plants containing approximately 25 plants per row bed. Plants were grown using drip irrigation and fertilizer applied following grower guidelines throughout the growing season to provide optimum conditions for plant growth. The raised bed plots were designed to simulate the planting densities used by commercial growers that generally plant approximately plants per acre (5,000-6,500 plants per acre or 12,355-16,062 plants per hectare) in double rows 35.6-45.7 cm apart with the beds spaced 5.0-6.5 feet (1.52-1.98 meters) apart from their centers (Orzolek et al., “Agricultural Alternatives: Pepper Production.” University Park: Penn State Extension, 2010)."}, "squash": {"tested_on": "squash", "test": "Foliar application to squash, yield", "type": "in vivo", "conditions": "Crookneck squash", "from_the_text": "Formulation 2 (F2) consists of the D RI Bt.4Q7 Flg22 applied with 0.01% (wv) non-ionic surfactant. […] Yield comparisons were made between the plants treated with the foliar Bt.4Q7Flg22 F1 and F2 spray applications compared to the control (water) or non-treated squash plants. Squash plants were cultivated in sandy loam soil as follows. 2.5 cm holes were cut in 2.5 ft. (0.76 m) wide plastic covered mounds, two rows per mound, holes spaced 1.5 ft (0.46 m) apart within each row. Rows were staggered within the mound. Mounds were spaced 4 ft (1.2 m) apart. Three squash seeds were planted per hole and thinned to a single plant per hole 14 days after planting. Drip irrigation tubing was laid in the center of each mound, and plants were watered as necessary.\nSquash plants were grown from seed in raised beds until bloom, and foliar treated in the same Florida (FL) location using two replicated trials or two separate harvests. Yield for the foliar Bt.4Q7Flg22 applied F1 and F2 treated plants is reported as the number of squash per plant, the weight (grams) per squash and the total squash yield (lbs/Ac) and represented as a percentage change as compared to non-treated control plants (Table 31).\nYield comparisons were made between the plants treated with the polypeptides compared to surfactant only control plants, with three replicates per treatment. […] Replicates with average yield per plant 50% above or 50% below the median yield for the trial were excluded as outliers.\nSquash plants were cultivated in sandy loam soil as follows. 2.5 cm holes were cut in 0.76 meters wide plastic covered mounds, two rows per mound, holes spaced 0.46 meters apart within each row. Rows were staggered within the mound. Mounds were spaced 1.2 meters apart. Three squash seeds were planted per hole and thinned to a single plant per hole 14 days after planting. Drip irrigation tubing was laid in the center of each mound, and plants were watered as necessary."}, "[3]": {"conditions": "foliar at V5, 100 μM, 6 US Midwest locations"}, "[4]": {"conditions": "foliar at R2, 7 US Midwest locations, use rate 0.33 Fl. oz/Ac"}, "[5]": {"conditions": "foliar at R2, average of AG3536 and AG3832, use rate RHPP 4.0, N-RAGE MAX 128 Fl. oz/Ac"}, "[6]": {"conditions": "Jalapeno pepper, foliar at early bloom, 100 μM, 3.2 fl oz/Ac"}, "[7]": {"conditions": "foliar 1 Fl. oz/Ac at first flower, vs water control, 2 harvests"}, "[8]": {"conditions": "Bt.4Q7Flg22 2.0 Fl. oz/Ac, Gm.RHPP 3.2 Fl. oz/Ac"}}}
{"sequence": "GGIRAAPTGNER (Glycine max) [RHPP, Root Hair Promoting Peptide from Glycine max]", "values": [{"measurement": "average yield", "setting": "corn; V5 corn, 6 locations combined", "value": "more than 209 Bu/Ac"}, {"measurement": "yield increase vs surfactant control", "setting": "corn; V5 corn, 6 locations combined", "value": 3.52, "unit": "Bu/Ac"}, {"measurement": "Average Change in Bu/Ac compared to surfactant only control", "setting": "corn; [3]", "value": "(+3.52; Bu/Ac"}, {"measurement": "Average Yield Bu/Ac", "setting": "corn; [3]", "value": 209.67, "unit": "Bu/Ac"}, {"measurement": "win rate", "setting": "corn; foliar at V5, 100 μM, vs surfactant only control", "value": 64, "unit": "%"}, {"measurement": "yield advantage on top of foliar fertilizer", "setting": "soybean [1]; 8 fl oz/Ac with foliar fertilizer, 11 sites", "value": 1, "unit": "Bu/AC"}, {"measurement": "yield increase over non-treated control", "setting": "soybean [1]; R2 foliar, 2 varieties, 7 locations, RHPP alone 4.0 Fl. oz/Ac", "value": 1.26, "unit": "Bu/Ac"}, {"measurement": "yield advantage", "setting": "soybean [1]; R2 foliar, 4 Fl. oz/Ac, 11 sites", "value": 0.31, "unit": "Bu/Ac"}, {"measurement": "average yield change vs non-treated control", "setting": "soybean [1]; R2 foliar, 11 locations, Flg22 polypeptides 0.33 Fl. oz/Ac, RHPP 4 Fl. oz/Ac", "value": 1.2, "unit": "Bu/Ac"}, {"measurement": "yield increase compared to fertilizer alone", "setting": "soybean [1]; RHPP 1 Fl. oz/Ac (300 nM) with N-RAGE MAX, R2, variety AG3536, 5 locations", "value": 1.4, "unit": "Bu/Ac"}, {"measurement": "Average Bu/Ac Increase compared to Control Variety 1 and 2", "setting": "soybean [1]; [4]", "value": "+0.35 Bu/Ac"}, {"measurement": "Average Total Yield Bu/Ac Variety 1 and 2", "setting": "soybean [1]; [4]", "value": 60.92, "unit": "Bu/Ac"}, {"measurement": "Average Total Yield Bu/Ac Variety 2", "setting": "soybean [1]; foliar at R2, AG3536, 7 US Midwest locations, use rate 0.33 Fl. oz/Ac", "value": 62.44, "unit": "Bu/Ac"}, {"measurement": "Average Bu/Ac Change compared to Control Variety 1 and 2", "setting": "soybean [1]; [5]", "value": "+0.9 Bu/Ac"}, {"measurement": "Average Total Yield Bu/Ac Variety 1 and 2", "setting": "soybean [1]; [5]", "value": 63.23, "unit": "Bu/Ac"}, {"measurement": "Average Total Yield Bu/Ac Variety 1", "setting": "soybean [1]; foliar at R2, variety 1 (AG3536), 5 US Midwest locations, use rate RHPP 4.0, N-RAGE MAX 128 Fl. oz/Ac", "value": 65.42, "unit": "Bu/Ac"}, {"measurement": "Average Total Yield Bu/Ac Variety 2", "setting": "soybean [1]; foliar at R2, variety 2 (AG3832), 5 US Midwest locations, use rate RHPP 4.0, N-RAGE MAX 128 Fl. oz/Ac", "value": 61.04, "unit": "Bu/Ac"}, {"measurement": "win rate", "setting": "soybean [2]; seed treatment, 11 sites", "value": 73, "unit": "%"}, {"measurement": "yield increase", "setting": "soybean [2]; seed treatment, 11 sites", "value": 1.2, "unit": "bu/Ac"}, {"measurement": "win rate", "setting": "soybean [2]; third study, 12 locations", "value": 64, "unit": "%"}, {"measurement": "yield benefit", "setting": "soybean [2]; third study, 12 locations", "value": 0.4, "unit": "Bu/Ac"}, {"measurement": "increase in yield vs control, combined average of both varieties", "setting": "peppers (Capsicum); 1 Fl. oz/Ac", "value": 67, "unit": "%"}, {"measurement": "increase in yield vs control", "setting": "peppers (Capsicum); 1 Fl. oz/Ac, HHW peppers", "value": 46, "unit": "%"}, {"measurement": "increase in yield vs control", "setting": "peppers (Capsicum); 1 Fl. oz/Ac, RK peppers", "value": 87, "unit": "%"}, {"measurement": "Average Fruit Weight (grams) per Plant", "setting": "peppers (Capsicum); [6]", "value": 156.6, "unit": "grams"}, {"measurement": "Percentage Change in Fruit Weight Compared to Surfactant Control", "setting": "peppers (Capsicum); [6]", "value": "+27%"}, {"measurement": "increase in average fruit weight per plant vs surfactant only", "setting": "peppers (Capsicum); Jalapeno, pre-bloom, Bt.4Q7Flg22 2 Fl. oz/Ac, Gm.RHPP 3.2 Fl. oz/Ac", "value": 27, "unit": "%"}, {"measurement": "Avg. Percent Change Yield Total Weight (lbs/Ac) Hungarian Hot Wax", "setting": "peppers (Capsicum); [7]", "value": "+46%"}, {"measurement": "Avg. Percent Change Yield Total Weight (lbs/Ac) Red Knight", "setting": "peppers (Capsicum); [7]", "value": "+87%"}, {"measurement": "Combined Avg. Percent Change Yield Total Number (lbs/Ac) RK and HHW", "setting": "peppers (Capsicum); foliar 1 Fl. oz/Ac at first flower, vs water control, both varieties", "value": "+67%"}, {"measurement": "Average squash fruit weight (grams) per plant", "setting": "squash; foliar at first bloom, Bt.4Q7Flg22 16.7 μM 2 fl oz/Ac, Gm.RHPP 100 μM 3.2 fl oz/Ac, two harvests", "value": 748.4, "unit": "grams"}, {"measurement": "Percentage Change in Fruit Weight Compared to Surfactant only control", "setting": "squash; foliar at first bloom, Bt.4Q7Flg22 2 fl oz/Ac, Gm.RHPP 3.2 fl oz/Ac", "value": "+4.4%"}, {"measurement": "change in fruit weight vs surfactant only control", "setting": "squash; [8]", "value": 4.4, "unit": "%"}, {"measurement": "increase in weight of harvested squash fruit per plant", "setting": "squash; [8]", "value": 31.7, "unit": "grams"}]}
